ChEMBL document CHEMBL1949544, “Proteasome inhibitors from Neoboutonia melleri” (J Nat Prod, 2012)

Test system: DLD-1
Assay: Inhibition of proteasome activity in human DLD1 cells expressing 4-ubiquitin luciferase reporter protein assessed increase of luciferase signal at 1 uM after 7 hrs relative to control

Row | Structure (SMILES) | fold change (FC)
1 | C=C(C(=O)[C@H](OC(C)=O)[C@@H](C)[C@H]1[C@@H](OC(C)=O)C[C@@]2(C)[C@@H]3CC[C@H]4[C@H](C)C(=O)C=C[C@@]45C[C@@]35CC[C@]12CO)[C@@H](C)CO | 1.2
2 | C=C(C(=O)[C@H](OC(C)=O)[C@@H](C)[C@H]1[C@@H](OC(C)=O)C[C@@]2(C)[C@@H]3CC[C@H]4[C@H](C)C(=O)C=C[C@@]45C[C@@]35CC[C@]12C)[C@@H](C)C=O | 1
3 | C=C(C(=O)[C@H](O)[C@@H](C)[C@H]1[C@@H](OC(C)=O)C[C@@]2(C)[C@@H]3C[C@@H](O)[C@H]4[C@H](C)C(=O)C=C[C@@]45C[C@@]35CC[C@]12C)[C@@H](C)CO | 1.1
4 | C=C(C(=O)[C@H](O)[C@@H](C)[C@H]1[C@@H](OC(C)=O)C[C@@]2(C)[C@@H]3CC[C@H]4[C@](C)(C(=O)O)[C@@H](O)CC[C@@]45C[C@@]35CC[C@]12C)C(C)C | 1.2
5 | C=C(C(=O)[C@H](OC(C)=O)[C@@H](C)[C@H]1[C@@H](OC(C)=O)C[C@@]2(C)[C@@H]3CC[C@H]4[C@H](C)C(=O)CC[C@@]45C[C@@]35CC[C@]12C)[C@@H](C)CO | 0.9
6 | C=C(C(=O)[C@H](OC(C)=O)[C@@H](C)[C@H]1[C@@H](OC(C)=O)C[C@@]2(C)[C@@H]3[C@H]4O[C@H]4[C@H]4[C@H](C)C(=O)C=C[C@@]45C[C@@]35CC[C@]12C)[C@@H](C)CO | 2.8
7 | C=C(C(=O)C1(O)O[C@H]2C[C@@]3(C)[C@@H]4CC[C@H]5[C@H](C)C(=O)C=C[C@@]56C[C@@]46CC[C@]3(C)[C@H]2[C@@H]1C)[C@@H](C)CO (stereo partly drawn) | 0.9
8 | C=C(C(=O)[C@H](O)[C@@H](C)[C@H]1[C@@H](OC(C)=O)C[C@@]2(C)[C@@H]3CC[C@H]4[C@H](C)C(=O)CC[C@@]45C[C@@]35CC[C@]12C)[C@@H](C)CO | 1.2
9 | CC(=O)O[C@H]1C[C@@]2(C)[C@@H]3CC[C@H]4[C@H](C)C(=O)C=C[C@@]45C[C@@]35CC[C@]2(C)[C@H]1[C@H](C)C=O | 1.1
10 | C=C(C(=O)[C@H](O)[C@@H](C)[C@H]1[C@@H](OC(C)=O)C[C@@]2(C)[C@@H]3CC[C@H]4[C@H](C)C(=O)C=C[C@@]45C[C@@]35CC[C@]12C)C(C)C | 2.4
11 | C=C(C(=O)C[C@@H](C)[C@H]1[C@@H](OC(C)=O)C[C@@]2(C)[C@@H]3CC[C@H]4[C@](C)(C(=O)O)[C@@H](O)CC[C@@]45C[C@@]35CC[C@]12C)C(C)CO (stereo partly drawn) | 1
12 | CC(=O)O[C@H]1C[C@@]2(C)[C@@H]3CC[C@H]4[C@H](C)C(=O)C=C[C@@]45C[C@@]35CC[C@]2(C)[C@H]1[C@H](C)[C@@H](O)C(=O)C=C(C)C | 1.1
13 | C=C(C(=O)[C@H](OC(C)=O)[C@@H](C)[C@H]1[C@@H](OC(C)=O)C[C@@]2(C)[C@@H]3CC[C@H]4[C@H](C)C(=O)C=C[C@@]45C[C@@]35CC[C@]12C)C(C)C | 7.2

Test system: DLD-1
Assay: Inhibition of proteasome activity in human DLD1 cells expressing 4-ubiquitin luciferase reporter protein assessed increase of luciferase signal at 5 uM after 7 hrs relative to control

Row | Structure (SMILES) | fold change (FC)
14 | C=C(C(=O)[C@H](OC(C)=O)[C@@H](C)[C@H]1[C@@H](OC(C)=O)C[C@@]2(C)[C@@H]3CC[C@H]4[C@H](C)C(=O)C=C[C@@]45C[C@@]35CC[C@]12CO)[C@@H](C)CO | 12
15 | C=C(C(=O)[C@H](OC(C)=O)[C@@H](C)[C@H]1[C@@H](OC(C)=O)C[C@@]2(C)[C@@H]3CC[C@H]4[C@H](C)C(=O)C=C[C@@]45C[C@@]35CC[C@]12C)[C@@H](C)C=O | 70
16 | C=C(C(=O)[C@H](O)[C@@H](C)[C@H]1[C@@H](OC(C)=O)C[C@@]2(C)[C@@H]3C[C@@H](O)[C@H]4[C@H](C)C(=O)C=C[C@@]45C[C@@]35CC[C@]12C)[C@@H](C)CO | 35
17 | C=C(C(=O)[C@H](O)[C@@H](C)[C@H]1[C@@H](OC(C)=O)C[C@@]2(C)[C@@H]3CC[C@H]4[C@](C)(C(=O)O)[C@@H](O)CC[C@@]45C[C@@]35CC[C@]12C)C(C)C | 1.3
18 | C=C(C(=O)[C@H](OC(C)=O)[C@@H](C)[C@H]1[C@@H](OC(C)=O)C[C@@]2(C)[C@@H]3CC[C@H]4[C@H](C)C(=O)CC[C@@]45C[C@@]35CC[C@]12C)[C@@H](C)CO | 45
19 | C=C(C(=O)[C@H](OC(C)=O)[C@@H](C)[C@H]1[C@@H](OC(C)=O)C[C@@]2(C)[C@@H]3[C@H]4O[C@H]4[C@H]4[C@H](C)C(=O)C=C[C@@]45C[C@@]35CC[C@]12C)[C@@H](C)CO | 72
20 | C=C(C(=O)C1(O)O[C@H]2C[C@@]3(C)[C@@H]4CC[C@H]5[C@H](C)C(=O)C=C[C@@]56C[C@@]46CC[C@]3(C)[C@H]2[C@@H]1C)[C@@H](C)CO (stereo partly drawn) | 1
21 | C=C(C(=O)[C@H](O)[C@@H](C)[C@H]1[C@@H](OC(C)=O)C[C@@]2(C)[C@@H]3CC[C@H]4[C@H](C)C(=O)CC[C@@]45C[C@@]35CC[C@]12C)[C@@H](C)CO | 10
22 | CC(=O)O[C@H]1C[C@@]2(C)[C@@H]3CC[C@H]4[C@H](C)C(=O)C=C[C@@]45C[C@@]35CC[C@]2(C)[C@H]1[C@H](C)C=O | 1.3
23 | C=C(C(=O)[C@H](O)[C@@H](C)[C@H]1[C@@H](OC(C)=O)C[C@@]2(C)[C@@H]3CC[C@H]4[C@H](C)C(=O)C=C[C@@]45C[C@@]35CC[C@]12C)C(C)C | 65
24 | C=C(C(=O)C[C@@H](C)[C@H]1[C@@H](OC(C)=O)C[C@@]2(C)[C@@H]3CC[C@H]4[C@](C)(C(=O)O)[C@@H](O)CC[C@@]45C[C@@]35CC[C@]12C)C(C)CO (stereo partly drawn) | 1.3
25 | CC(=O)O[C@H]1C[C@@]2(C)[C@@H]3CC[C@H]4[C@H](C)C(=O)C=C[C@@]45C[C@@]35CC[C@]2(C)[C@H]1[C@H](C)[C@@H](O)C(=O)C=C(C)C | 5.2
26 | C=C(C(=O)[C@H](OC(C)=O)[C@@H](C)[C@H]1[C@@H](OC(C)=O)C[C@@]2(C)[C@@H]3CC[C@H]4[C@H](C)C(=O)C=C[C@@]45C[C@@]35CC[C@]12C)C(C)C | 74

Test system: DLD-1
Assay: Inhibition of proteasome activity in human DLD1 cells expressing 4-ubiquitin luciferase reporter protein assessed increase of luciferase signal at 10 uM after 7 hrs relative to control

Row | Structure (SMILES) | fold change (FC)
27 | C=C(C(=O)[C@H](OC(C)=O)[C@@H](C)[C@H]1[C@@H](OC(C)=O)C[C@@]2(C)[C@@H]3CC[C@H]4[C@H](C)C(=O)C=C[C@@]45C[C@@]35CC[C@]12CO)[C@@H](C)CO | 1.1
28 | C=C(C(=O)[C@H](OC(C)=O)[C@@H](C)[C@H]1[C@@H](OC(C)=O)C[C@@]2(C)[C@@H]3CC[C@H]4[C@H](C)C(=O)C=C[C@@]45C[C@@]35CC[C@]12C)[C@@H](C)C=O | 31
29 | C=C(C(=O)[C@H](O)[C@@H](C)[C@H]1[C@@H](OC(C)=O)C[C@@]2(C)[C@@H]3CC[C@H]4[C@](C)(C(=O)O)[C@@H](O)CC[C@@]45C[C@@]35CC[C@]12C)C(C)C | 1.8
30 | C=C(C(=O)[C@H](OC(C)=O)[C@@H](C)[C@H]1[C@@H](OC(C)=O)C[C@@]2(C)[C@@H]3CC[C@H]4[C@H](C)C(=O)CC[C@@]45C[C@@]35CC[C@]12C)[C@@H](C)CO | 48
31 | C=C(C(=O)[C@H](OC(C)=O)[C@@H](C)[C@H]1[C@@H](OC(C)=O)C[C@@]2(C)[C@@H]3[C@H]4O[C@H]4[C@H]4[C@H](C)C(=O)C=C[C@@]45C[C@@]35CC[C@]12C)[C@@H](C)CO | 15
32 | C=C(C(=O)C1(O)O[C@H]2C[C@@]3(C)[C@@H]4CC[C@H]5[C@H](C)C(=O)C=C[C@@]56C[C@@]46CC[C@]3(C)[C@H]2[C@@H]1C)[C@@H](C)CO (stereo partly drawn) | 2.6
33 | C=C(C(=O)[C@H](O)[C@@H](C)[C@H]1[C@@H](OC(C)=O)C[C@@]2(C)[C@@H]3CC[C@H]4[C@H](C)C(=O)CC[C@@]45C[C@@]35CC[C@]12C)[C@@H](C)CO | 77
34 | CC(=O)O[C@H]1C[C@@]2(C)[C@@H]3CC[C@H]4[C@H](C)C(=O)C=C[C@@]45C[C@@]35CC[C@]2(C)[C@H]1[C@H](C)C=O | 3
35 | C=C(C(=O)[C@H](O)[C@@H](C)[C@H]1[C@@H](OC(C)=O)C[C@@]2(C)[C@@H]3CC[C@H]4[C@H](C)C(=O)C=C[C@@]45C[C@@]35CC[C@]12C)C(C)C | 20
36 | C=C(C(=O)C[C@@H](C)[C@H]1[C@@H](OC(C)=O)C[C@@]2(C)[C@@H]3CC[C@H]4[C@](C)(C(=O)O)[C@@H](O)CC[C@@]45C[C@@]35CC[C@]12C)C(C)CO (stereo partly drawn) | 2.8
37 | CC(=O)O[C@H]1C[C@@]2(C)[C@@H]3CC[C@H]4[C@H](C)C(=O)C=C[C@@]45C[C@@]35CC[C@]2(C)[C@H]1[C@H](C)[C@@H](O)C(=O)C=C(C)C | 53
38 | C=C(C(=O)[C@H](OC(C)=O)[C@@H](C)[C@H]1[C@@H](OC(C)=O)C[C@@]2(C)[C@@H]3CC[C@H]4[C@H](C)C(=O)C=C[C@@]45C[C@@]35CC[C@]12C)C(C)C | 19
